Earlier results as cited in patent US20080176830A1, “Compounds, Compositions, and Methods” (priority 2005, published 2008).

Test system: A549 cells
Settings: data provided by National Cancer Institute

In the case of O=c1[nH]cc(F)c(=O)[nH]1 [5-fluorouracil], the GI50 is listed as 1000 nM.

In the case of COc1cccc2c1C(=O)c1c(O)c3c(c(O)c1C2=O)C[C@@](O)(C(=O)CO)C[C@@H]3O[C@H]1C[C@H](N)[C@H](O)[C@H](C)O1 [doxorubicin], the GI50 is listed as 63 nM.

For NC(=O)NO [hydroxyurea], the GI50 is given as 500000 nM.

In the case of CC(=O)O[C@H]1C(=O)[C@@]2(C)[C@H]([C@H](OC(=O)c3ccccc3)[C@]3(O)C[C@H](OC(=O)[C@H](O)[C@@H](NC(=O)c4ccccc4)c4ccccc4)C(C)=C1C3(C)C)[C@]1(OC(C)=O)CO[C@@H]1C[C@@H]2O [paclitaxel], the GI50 is listed as 4 nM.
